In one data set the target is T1, BRD4 (BD1+BD2) (Homo sapiens, UniProt O60885).
T1 construct: 1.8 μg/ml recombinant BRD4 (BD1+BD2 domains) protein
The settings on record: read-out: BRD4 Binding Potency. The procedure: A master mix was prepared with assay buffer, 1.8 μg/ml recombinant BRD4 (BD1+BD2 domains) protein, and 200-fold dilutions of Tb-labeled donor and dye-labeled acceptor. 40-fold dilutions of acetylated and non-acetylated ligands were prepared in 1×BRD TR-FRET assay buffer. Also, a serial 3-fold dilution of each compound was prepared ranging from 40 μM down until 2.0 nM. In a 384-well plate, 5 μl diluted ligand and 5 μl of compound dilution were added per well to duplicate wells and mixed by brief shaking. Then 10 μl of master mix was added per well, mixed by brief shaking, incubated at 25° C. for 2 hr and fluorescence was measured on an EnVision Plate Reader. The 665 nm/615 nm ratio was calculated from EnVision raw data. Data were normalized using whole-plate averages of “positive” and “negative” readings. A four-parameter “log[inhibitor] vs. response” curve was fitted using GraphPad Prism 7.0.

For another data set, the target named is HSP90α (Homo sapiens, UniProt P07900). As to the kind of experiment: HSP90α Binding Fluorescent Polarization (FP) Assay. The note with it: competition with FITC-geldanamycin; read-out: HSP90 Binding Potency. The procedure:
HSP90α Binding Fluorescent Polarization (FP) Assay
A master mix was prepared with assay buffer, BSA and FITC-geldanamycin. In a 96-well plate, a serial 3-fold dilution of each compound was prepared ranging from 40 μM down until 2.0 nM. Also in a 96-well plate, recombinant HSP90α protein was diluted to 28 μg/ml. Then, in a 384-well plate, 10 μl of master mix and 5 μl of compound dilution were added per well to duplicate wells and mixed by brief shaking. Then 5 μl of diluted HSP90α protein was added per well, mixed by brief shaking, incubated at 25° C. for 30, 60 and 120 min and fluorescence was measured on an EnVision Plate Reader. Background-subtracted mP values were calculated from EnVision raw data and a four-parameter “log[inhibitor] vs. response” curve was fitted using GraphPad Prism 7.0.

A further data set relates to MV4-11 cells. As to the kind of experiment: MV4-11 Cell Cytotoxicity Assay. The class given is cell-based, human. The note with it: human, MV4-11 cells, CCK-8. From the text: % Inhibition=100−(D−B)/(S−B)*100%.
S: The absorbance of the maximum (cells with DMSO)
B: The absorbance of the minimum (medium with DMSO)

From US20220168427A1 (Ranok Therapeutics (Hangzhou) Co. Ltd., priority 2019, published 2022) come the findings set out here.

Where a name gives a salt, the structure may show the parent alone. A value given as a limit tells only on which side of the number the result lay.

In the case of `Cc1sc2c(c1C)C(c1ccc(Cl)cc1)=N[C@@H](CC(=O)NCCc1ccc(CN3CCC(Cc4ccc(-n5c(O)nnc5-c5cc(C(C)C)c(O)cc5O)cc4)CC3)cc1)c1nnc(C)n1-2` [Compound 98, (S)-2-(4-(4-chlorophenyl)-2,3,9-trimethyl-6H-thieno[3,2-f][1,2,4]triazolo[4,3-a][1,4]diazepin-6-yl)-N-(4-((4-(4-(3-(2,4-dihydroxy-5-isopropylphenyl)-5-hydroxy-4H-1,2,4-triazol-4-yl)benzyl)piperidin-1-yl)methyl)phenethyl)acetamide, trifluoroacetic acid], the IC50 at BRD4 (BD1+BD2) and on HSP90α was 100 to 1000 nM each time. Moreover, in the data set on MV4-11 cells, the IC50 at 72 h was < 100 nM.
For `Cc1nn(-c2ccc(C(N)=O)c(NCCOCCOCCNC(=O)C[C@@H]3N=C(c4ccc(Cl)cc4)c4c(sc(C)c4C)-n4c(C)nnc43)c2)c2c1C(=O)CC(C)(C)C2` [Compound 21, 2-((2-(2-(2-(2-((6S)-4-(4-chlorophenyl)-2,3,9-trimethyl-6H-thieno[3,2-f][1,2,4]triazolo[4,3-a][1,4]diazepin-6-yl)acetamido)ethoxy)ethoxy)ethyl)amino)-4-(3,6,6-trimethyl-4-oxo-4,5,6,7-tetrahydro-1H-indazol-1-yl)benzamide, trifluoroacetic acid], the IC50 on BRD4 (BD1+BD2) and at HSP90α was > 1000 nM each time. The IC50 at 72 h in the data set on MV4-11 cells was 100 to 1000 nM.
Take `CCc1cc(-c2nnc(O)n2-c2ccc(CN3CCN(CC4CCN(CC[C@@H]5N=C(c6ccc(Cl)cc6)c6c(sc(C)c6C)-n6c(C)nnc65)CC4)CC3)cc2)c(O)cc1O` [Compound 2, 4-(4-(4-((4-((1-(2-((6S)-4-(4-chlorophenyl)-2,3,9-trimethyl-6H-thieno[3,2-f][1,2,4]triazolo[4,3-a][1,4]diazepin-6-yl)ethyl)piperidin-4-yl)methyl)piperazin-1-yl)methyl)phenyl)-5-hydroxy-4H-1,2,4-triazol-3-yl)-6-ethylbenzene-1,3-diol, trifluoroacetic acid]: the results for the IC50 at BRD4 (BD1+BD2) and at HSP90α were > 1000 nM and < 100 nM, respectively. The IC50 at 72 h in the data set with MV4-11 cells lay within 100 to 1000 nM.
In the same order, the values of `Cc1sc2c(c1C)C(c1ccc(Cl)cc1)=N[C@@H](CC(=O)NCCOCCN[C@@H](C)C(=O)NC(C(=O)N1CCC[C@H]1C(=O)Nc1snnc1-c1ccccc1)C1CCCCC1)c1nnc(C)n1-2` (stereo in doubt) [Compound 127, (S)-1-((2S,5S)-14-((S)-4-(4-chlorophenyl)-2,3,9-trimethyl-6H-thieno[3,2-f][1,2,4]triazolo[4,3-a][1,4]diazepin-6-yl)-2-cyclohexyl-5-methyl-4,13-dioxo-9-oxa-3,6,12-triazatetradecanoyl)-N-(4-phenyl-1,2,3-thiadiazol-5-yl)pyrrolidine-2-carboxamide] are 100 to 1000 nM, > 1000 nM and 100 to 1000 nM.
`CC[C@@H](C)Nc1cc(C(=O)NC2C[C@H]3CC[C@H](C2)N3c2ccc(C(=O)Nc3ccc(CN4CCN(CC5CCN(C(=O)C[C@@H]6N=C(c7ccc(Cl)cc7)c7c(sc(C)c7C)-n7c(C)nnc76)CC5)CC4)cc3)cn2)c(C)cc1C(N)=O` (stereo partly drawn) [Compound 26, 5-((R)-sec-butylamino)-N1-((1R,5R)-8-(5-((4-((4-((1-(2-((6S)-4-(4-chlorophenyl)-2,3,9-trimethyl-6H-thieno[3,2-f][1,2,4]triazolo[4,3-a][1,4]diazepin-6-yl)acetyl)piperidin-4-yl)methyl)piperazin-1-yl)methyl)phenyl)carbamoyl)pyridin-2-yl)-8-azabicyclo[3.2.1]octan-3-yl)-2-methylterephthalamide, formic acid]: the values for the IC50 on BRD4 (BD1+BD2) and on HSP90α were 100 to 1000 nM and > 1000 nM, respectively. Besides, the IC50 at 72 h with MV4-11 cells is < 100 nM.
In the same order, the values of `Cc1sc2c(c1C)C(c1ccc(Cl)cc1)=N[C@@H](CC(=O)N(C)CCOc1ccc(CN(C)Cc3ccc(-n4c(O)nnc4-c4cc(C(C)C)c(O)cc4O)cc3)cc1)c1nnc(C)n1-2` [Compound 99, (S)-2-(4-(4-chlorophenyl)-2,3,9-trimethyl-6H-thieno[3,2-f][1,2,4]triazolo[4,3-a][1,4]diazepin-6-yl)-N-(2-(4-(((4-(3-(2,4-dihydroxy-5-isopropylphenyl)-5-hydroxy-4H-1,2,4-triazol-4-yl)benzyl)(methyl)amino)methyl)phenoxy)ethyl)-N-methylacetamide, formic acid] are > 1000 nM, 100 to 1000 nM and < 100 nM.
On to `Cc1sc2c(c1C)C(c1ccc(Cl)cc1)=N[C@@H](CC(=O)N1CCC(CN3CCN(Cc4ccc(-n5c(O)nnc5-c5cc(C(C)C)c(O)cc5O)cc4)CC3)CC1)c1nnc(C)n1-2` [Compound 40, 2-((6S)-4-(4-chlorophenyl)-2,3,9-trimethyl-6H-thieno[3,2-f][1,2,4]triazolo[4,3-a][1,4]diazepin-6-yl)-1-(4-((4-(4-(3-(2,4-dihydroxy-5-isopropylphenyl)-5-hydroxy-4H-1,2,4-triazol-4-yl)benzyl)piperazin-1-yl)methyl)piperidin-1-yl)ethanone, trifluoroacetic acid], for which the IC50 on BRD4 (BD1+BD2) is 100 to 1000 nM; on HSP90α it was < 100 nM.
Regarding `CCc1cc(-c2nnc(O)n2-c2ccc(CN3CCN(CC4CCN(C(=O)C[C@@H]5N=C(c6ccc(Cl)cc6)c6c(sc(C)c6C)-n6c(C)nnc65)CC4)CC3)cc2)c(O)cc1O` [Compound 1, 2-((6S)-4-(4-chlorophenyl)-2,3,9-trimethyl-6H-thieno[3,2-f][1,2,4]triazolo[4,3-a][1,4]diazepin-6-yl)-1-(4-((4-(4-(3-(5-ethyl-2,4-dihydroxyphenyl)-5-hydroxy-4H-1,2,4-triazol-4-yl)benzyl)piperazin-1-yl)methyl)piperidin-1-yl)ethanone], the IC50 at BRD4 (BD1+BD2) and on HSP90α was 100 to 1000 nM each time.
As for `CCc1cc(-c2nnc(C(N)=O)n2-c2ccc(CN3CCN(CC4CCN(C(=O)C[C@@H]5N=C(c6ccc(Cl)cc6)c6c(sc(C)c6C)-n6c(C)nnc65)CC4)CC3)cc2)c(O)cc1O` [Compound 121, (S)-4-(4-((4-((1-(2-(4-(4-chlorophenyl)-2,3,9-trimethyl-6H-thieno[3,2-f][1,2,4]triazolo[4,3-a][1,4]diazepin-6-yl)acetyl)piperidin-4-yl)methyl)piperazin-1-yl)methyl)phenyl)-5-(5-ethyl-2,4-dihydroxyphenyl)-4H-1,2,4-triazole-3-carboxamide hydrochloride], the values for the IC50 on BRD4 (BD1+BD2) and on HSP90α were > 1000 nM and < 100 nM, respectively.
For the molecule `Cc1sc2c(c1C)C(c1ccc(Cl)cc1)=N[C@@H](CC(=O)NC(C)c1ccc(CN3CCC(Cc4ccc(-n5c(O)nnc5-c5cc(C(C)C)c(O)cc5O)cc4)CC3)cc1)c1nnc(C)n1-2` (stereo in doubt) [Compound 82, 2-((S)-4-(4-chlorophenyl)-2,3,9-trimethyl-6H-thieno[3,2-f][1,2,4]triazolo[4,3-a][1,4]diazepin-6-yl)-N—((R)-1-(4-((4-(4-(3-(2,4-dihydroxy-5-isopropylphenyl)-5-hydroxy-4H-1,2,4-triazol-4-yl)benzyl)piperidin-1-yl)methyl)phenyl)ethyl)acetamide hydrochloride], the IC50 on BRD4 (BD1+BD2) is < 100 nM. Also, the IC50 at 72 h in the data set with MV4-11 cells is < 100 nM.
As to `CCNC(=O)c1noc(-c2cc(C(C)C)c(O)cc2O)c1-c1ccc(CN2CCN(CC3CCN(C(=O)C[C@@H]4N=C(c5ccc(Cl)cc5)c5c(sc(C)c5C)-n5c(C)nnc54)CC3)CC2)cc1` [Compound 16, 4-(4-((4-((1-(2-((6S)-4-(4-chlorophenyl)-2,3,9-trimethyl-6H-thieno[3,2-f][1,2,4]triazolo[4,3-a][1,4]diazepin-6-yl)acetyl)piperidin-4-yl)methyl)piperazin-1-yl)methyl)phenyl)-5-(2,4-dihydroxy-5-isopropylphenyl)-N-ethylisoxazole-3-carboxamide, trifluoroacetic acid], the IC50 on BRD4 (BD1+BD2) and at HSP90α was 100 to 1000 nM throughout.
Regarding `CCc1cc(-c2nnc(C(N)=O)n2-c2ccc(CN3CCN(CC4CCN(C(=O)C[C@@H]5N=C(c6ccc(Cl)cc6)c6c(sc(C)c6C)-n6c(C)nnc65)CC4)CC3)cc2)c(O)cc1O` [Compound 120, (S)-4-(4-((4-((1-(2-(4-(4-chlorophenyl)-2,3,9-trimethyl-6H-thieno[3,2-f][1,2,4]triazolo[4,3-a][1,4]diazepin-6-yl)acetyl)piperidin-4-yl)methyl)piperazin-1-yl)methyl)phenyl)-5-(5-ethyl-2,4-dihydroxyphenyl)-4H-1,2,4-triazole-3-carboxamide hydrochloride], the IC50 at BRD4 (BD1+BD2) is < 100 nM; at HSP90α it was 100 to 1000 nM.
